Columns and labels:
[1] = target: T1, isolated recombinant JAK1 kinase domain (Homo sapiens, UniProt P23458); assay: JAK1 enzyme assay (Caliper LabChip, Ki); assay type: biochemical; settings: recombinant JAK1 kinase domain, 25 μM ATP
T1 construct: The activity of the isolated recombinant JAK1 and JAK2 kinase domain was measured
Outline: (§1)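 Recombinant JAK1 or JAK2 kinase domain phosphorylating a 5-carboxyfluorescein-labelled JAK3-derived peptide, 30 min at 22° C, stopped with EDTA. Phosphorylated fraction of substrate quantified by Caliper LabChip microfluidic separation. Ki from Morrison tight-binding model corrected for ATP competition (Ki=Ki,app/(1+[ATP]/Km,app)).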

[2] = target: T2, isolated recombinant JAK2 kinase domain (Homo sapiens, UniProt O60674); assay: JAK2 enzyme assay (Caliper LabChip, Ki); assay type: biochemical; settings: 25 μM ATP
T2 construct: The activity of the isolated recombinant JAK1 and JAK2 kinase domain was measured
Outline: as §1

[3] = tested on: JAK1-dependent STAT6 phosphorylation downstream of IL-13 stimulation in BEAS-2B human bronchial epithelial cells; assay: JAK1 pathway assay in BEAS-2B cells (IL-13 stimulated STAT6 phosphorylation, MSD); assay type: cell-based; settings: read-out: P-STAT6 BEAS2B + IL13 IC50
Outline: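 BEAS-2B human bronchial epithelial cells, plated the day before in complete growth medium, were preincubated with compound for 1 hr at 37° C (0.2% DMSO final), then stimulated with IL-13 at its EC90 for 15 min. STAT6 phosphorylation in lysates was read by MSD; EC50 was taken as 50% inhibition versus DMSO control.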

T1 sequence (P23458 875-1153 limits assumed): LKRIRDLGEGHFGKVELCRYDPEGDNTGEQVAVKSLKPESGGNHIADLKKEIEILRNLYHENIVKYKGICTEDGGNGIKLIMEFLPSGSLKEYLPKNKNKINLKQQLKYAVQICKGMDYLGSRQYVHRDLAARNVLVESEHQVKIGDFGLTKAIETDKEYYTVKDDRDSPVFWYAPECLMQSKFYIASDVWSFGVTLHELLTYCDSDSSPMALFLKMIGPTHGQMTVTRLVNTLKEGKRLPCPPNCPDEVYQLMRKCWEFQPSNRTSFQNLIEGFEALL
T2 sequence (O60674 849-1124 limits assumed): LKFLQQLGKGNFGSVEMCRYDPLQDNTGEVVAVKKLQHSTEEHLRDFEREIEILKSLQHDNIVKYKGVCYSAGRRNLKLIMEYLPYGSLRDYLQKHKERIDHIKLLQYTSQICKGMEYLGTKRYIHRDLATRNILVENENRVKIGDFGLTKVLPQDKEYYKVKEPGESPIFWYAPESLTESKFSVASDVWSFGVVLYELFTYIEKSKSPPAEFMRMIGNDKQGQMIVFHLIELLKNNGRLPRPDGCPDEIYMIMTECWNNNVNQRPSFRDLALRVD

Compound: CSc1ccc(OC(F)F)c(-c2nn(CC(=O)N3CCC(CN4C[C@@H](C)N(CC(=O)N(C)C)C[C@@H]4C)CC3)cc2NC(=O)c2cnn3cccnc23)c1 [Example 98, N-[3-[2-(difluoromethoxy)-5-methylsulfanyl-phenyl]-1-[2-[4-[[(2S,5R)-4-[2-(dimethylamino)-2-oxo-ethyl]-2,5-dimethyl-piperazin-1-yl]methyl]-1-piperidyl]-2-oxo-ethyl]pyrazol-4-yl]pyrazolo[1,5-a]pyrimidine-3-carboxamide]
- Ki [1]: 0.64 nM
- Ki [2]: 1.2 nM
- IC50 [3]: 37 nM

Compound: CSc1ccc(OC(F)F)c(-c2nn(CC(=O)N3CCC(N4CCNC(=O)C4)CC3)cc2NC(=O)c2cnn3cccnc23)c1 [Example 15, N-[3-[2-(difluoromethoxy)-5-methylsulfanyl-phenyl]-1-[2-oxo-2-[4-(3-oxopiperazin-1-yl)-1-piperidyl]ethyl]pyrazol-4-yl]pyrazolo[1,5-a]pyrimidine-3-carboxamide]
- Ki [1]: 0.28 nM
- Ki [2]: 0.38 nM
- IC50 [3]: 310 nM

Compound: CSc1ccc(OC(F)F)c(-c2nn(CC(=O)N3CCC(N(C)CC4OCCO4)CC3)cc2NC(=O)c2cnn3cccnc23)c1 [Example 50]
- Ki [1]: 0.5 nM
- Ki [2]: 0.96 nM
- IC50 [3]: 18 nM

Compound: CSc1ccc(OC(F)F)c(-c2nn(CC(=O)N3CCC(N4CCCOCC4)CC3)cc2NC(=O)c2cnn3cccnc23)c1 [Example 45, N-[3-[2-(difluoromethoxy)-5-methylsulfanyl-phenyl]-1-[2-[4-(1,4-oxazepan-4-yl)-1-piperidyl]-2-oxo-ethyl]pyrazol-4-yl]pyrazolo[1,5-a]pyrimidine-3-carboxamide]
- Ki [1]: 0.32 nM
- Ki [2]: 0.68 nM
- IC50 [3]: 44 nM

Compound: CSc1ccc(OC(F)F)c(-c2nn(CC(=O)N3CCC(N4CCN(CC(=O)N5CCOCC5)CC4)CC3)cc2NC(=O)c2cnn3cccnc23)c1 [Example 88, N-[3-[2-(difluoromethoxy)-5-methylsulfanyl-phenyl]-1-[2-[4-[4-(2-morpholino-2-oxo-ethyl)piperazin-1-yl]-1-piperidyl]-2-oxo-ethyl]pyrazol-4-yl]pyrazolo[1,5-a]pyrimidine-3-carboxamide]
- Ki [1]: 0.32 nM
- Ki [2]: 0.49 nM
- IC50 [3]: 470 nM

Compound: CSc1ccc(OC(F)F)c(-c2nn(CC(=O)N3CCC(N(C)CC(C)(F)F)CC3)cc2NC(=O)c2cnn3cccnc23)c1 [Example 24, N-[3-[2-(difluoromethoxy)-5-methylsulfanyl-phenyl]-1-[2-[4-[2,2-difluoropropyl(methyl)amino]-1-piperidyl]-2-oxo-ethyl]pyrazol-4-yl]pyrazolo[1,5-a]pyrimidine-3-carboxamide]
- Ki [1]: 0.22 nM
- Ki [2]: 0.32 nM
- IC50 [3]: 4.9 nM

Compound: CSc1ccc(OC(F)F)c(-c2nn(CC(=O)N3CCC(N4CCC[C@@H](C#N)C4)CC3)cc2NC(=O)c2cnn3cccnc23)c1 [Example 58, N-[1-(2-[4-[(3R)-3-cyanopiperidin-1-yl]piperidin-1-yl]-2-oxoethyl)-3-[2-(difluoromethoxy)-5-(methylsulfanyl)phenyl]-1H-pyrazol-4-yl]pyrazolo[1,5-a]pyrimidine-3-carboxamide]
- Ki [1]: 0.2 nM
- Ki [2]: 0.33 nM
- IC50 [3]: 13 nM

Compound: CCSc1ccc(OC(F)F)c(-c2nn(CC(=O)N3CCC(N(C)CCC#N)CC3)cc2NC(=O)c2cnn3cccnc23)c1 [Example 194, N-[1-[2-[4-[2-cyanoethyl(methyl)amino]-1-piperidyl]-2-oxo-ethyl]-3-[2-(difluoromethoxy)-5-ethylsulfanyl-phenyl]pyrazol-4-yl]pyrazolo[1,5-a]pyrimidine-3-carboxamide]
- Ki [1]: 0.31 nM
- Ki [2]: 0.63 nM
- IC50 [3]: 25 nM

Compound: CN(C)C(=O)CN1CCN(CC2CCN(C(=O)Cn3cc(NC(=O)c4cnn5cccnc45)c(-c4cc(SC5CC5)ccc4OC(F)F)n3)CC2)CC1 [Example 170, N-[3-[5-cyclopropylsulfanyl-2-(difluoromethoxy)phenyl]-1-[2-[4-[[4-[2-(dimethylamino)-2-oxo-ethyl]piperazin-1-yl]methyl]-1-piperidyl]-2-oxo-ethyl]pyrazol-4-yl]pyrazolo[1,5-a]pyrimidine-3-carboxamide]
- Ki [1]: 0.39 nM
- Ki [2]: 0.78 nM
- IC50 [3]: 25 nM

Compound: COCCN1CCN(C(=O)Cn2cc(NC(=O)c3cnn4cccnc34)c(-c3cc(SC(C)C)ccc3OC(F)F)n2)CC1 [Example 116, N-[3-[2-(difluoromethoxy)-5-isopropylsulfanyl-phenyl]-1-[2-[4-(2-methoxyethyl)piperazin-1-yl]-2-oxo-ethyl]pyrazol-4-yl]pyrazolo[1,5-a]pyrimidine-3-carboxamide]
- Ki [1]: 0.51 nM
- Ki [2]: 1 nM
- IC50 [3]: 26 nM

Compound: CC(C)Sc1ccc(OC(F)F)c(-c2nn(CC(=O)N3CCC(N(C)CC(=O)N4CCOCC4)CC3)cc2NC(=O)c2cnn3cccnc23)c1 [Example 154, N-[3-[2-(difluoromethoxy)-5-isopropylsulfanyl-phenyl]-1-[2-[4-[methyl-(2-morpholino-2-oxo-ethyl)amino]-1-piperidyl]-2-oxo-ethyl]pyrazol-4-yl]pyrazolo[1,5-a]pyrimidine-3-carboxamide]
- Ki [1]: 0.42 nM
- Ki [2]: 1.5 nM
- IC50 [3]: 81 nM

Compound: CC(C)Sc1ccc(OC(F)F)c(-c2nn(C[C@H]3CCCN3)cc2NC(=O)c2cnn3cccnc23)c1 [Example 113, N-[3-[2-(difluoromethoxy)-5-isoproplsulfanyl-phenyl]-1-[[(2R)-pyrrolidin-2-yl]methyl]pyrazol-4-yl]pyrazolo[1,5-a]pyrimidine-3-carboxamide]
- Ki [1]: 0.64 nM
- Ki [2]: 0.78 nM
- IC50 [3]: 20 nM

Compound: O=C(Nc1cn(CCN[C@@H]2CCCOC2)nc1-c1cc(SC2COC2)ccc1OC(F)F)c1cnn2cccnc12 [Example 180, N-[3-[2-(difluoromethoxy)-5-(oxetan-3-ylsulfanyl)phenyl]-1-[2-[[(3R)-tetrahydropyran-3-yl]amino]ethyl]pyrazol-4-yl]pyrazolo[1,5-a]pyrimidine-3-carboxamide]
- Ki [1]: 1 nM
- Ki [2]: 0.76 nM
- IC50 [3]: 14 nM

Compound: CC(=O)N1CCN(CC2CCN(C(=O)Cn3cc(NC(=O)c4cnn5cccnc45)c(-c4cc(SC(C)C)ccc4OC(F)F)n3)CC2)CC1 [Example 157, N-[1-[2-[4-[(4-acetylpiperazin-1-yl)methyl]-1-piperidyl]-2-oxo-ethyl]-3-[2-(difluoromethoxy)-5-isopropylsulfanyl-phenyl]pyrazol-4-yl]pyrazolo[1,5-a]pyrimidine-3-carboxamide]
- Ki [1]: 0.27 nM
- Ki [2]: 0.77 nM
- IC50 [3]: 47 nM

Compound: CC(C)Sc1ccc(OC(F)F)c(-c2nn(CC(=O)N3CCC(N(C)CC(=O)N(C)C)CC3)cc2NC(=O)c2cnn3cccnc23)c1 [Example 105, N-[3-[2-(difluoromethoxy)-5-isopropylsulfanyl-phenyl]-1-[2-[4-[[2-(dimethylamino)-2-oxo-ethyl]-methyl-amino]-1-piperidyl]-2-oxo-ethyl]pyrazol-4-yl]pyrazolo[1,5-a]pyrimidine-3-carboxamide]
- Ki [1]: 0.43 nM
- Ki [2]: 1.3 nM
- IC50 [3]: 72 nM

Compound: CSc1ccc(OC(F)F)c(-c2nn(CCN[C@@H]3CCCOC3)cc2NC(=O)c2cnn3cccnc23)c1 [Example 38, N-[3-[2-(difluoromethoxy)-5-methylsulfanyl-phenyl]-1-[2-[[(3R)-tetrahydropyran-3-yl]amino]ethyl]pyrazol-4-yl]pyrazolo[1,5-a]pyrimidine-3-carboxamide]
- Ki [1]: 0.23 nM
- Ki [2]: 0.19 nM
- IC50 [3]: 20 nM

Source: patent publication US20180265515A1 (Genentech, Inc., priority 2015, published 2018)
